What was measured:
Assay in all cases: relative viability (nuclei count vs DMSO), 5 days (fraction); higher = more cells survive
[1] = compound: C1=CC2=C(C=CC(=C2)C=C3C(=O)NC(=NCC4=CC=CS4)S3)N=C1 [RO-3306] + O=C(CCCCCCC(=O)Nc1ccccc1)NO [Vorinostat] (partner 1 µM)
Outline: (§1)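 Each reported value is a median over duplicate plates. It expresses relative viability: treated-well nuclei count divided by vehicle-well nuclei count. Lung cancer cell lines in 1536-well plates were dosed by pin tool a day after seeding, alone with one drug or with a fixed anchor-drug dose plus five library-drug doses (not always all listed) in √10 steps, and nuclei were counted after 5 days.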

[2] = compound: C1=CC2=C(C=CC(=C2)C=C3C(=O)NC(=NCC4=CC=CS4)S3)N=C1 [RO-3306] + N=C(N)NC(=N)NCCc1ccccc1 [Phenformin] (partner 250 µM)
Outline: as §1

[3] = compound: O=S(=O)(c1ccccc1)N(CC(F)(F)F)c1ccc(C(O)(C(F)(F)F)C(F)(F)F)cc1 + N=C(N)NC(=N)NCCc1ccccc1 [Phenformin] (partner 250 µM)
Outline: as §1

[4] = compound: C1=CC2=C(C=CC(=C2)C=C3C(=O)NC(=NCC4=CC=CS4)S3)N=C1 [RO-3306] + CS(=O)(=O)CCNCc1ccc(-c2ccc3ncnc(Nc4ccc(OCc5cccc(F)c5)c(Cl)c4)c3c2)o1 [Lapatinib] (partner 2 µM)
Outline: as §1

Cell Line | relative viability ([1]; first compound 0.01 µM) | relative viability ([1]; first compound 0.1 µM) | relative viability ([1]; first compound 0.3162 µM) | relative viability ([1]; first compound 1 µM) | relative viability ([2]; first compound 0.01 µM) | relative viability ([2]; first compound 0.03162 µM) | relative viability ([2]; first compound 0.1 µM) | relative viability ([2]; first compound 0.3162 µM) | relative viability ([2]; first compound 1 µM) | relative viability ([3]; first compound 0.8 µM) | relative viability ([3]; first compound 2.53 µM) | relative viability ([3]; first compound 8 µM) | relative viability ([4]; first compound 0.01 µM) | relative viability ([4]; first compound 0.03162 µM) | relative viability ([4]; first compound 0.1 µM) | relative viability ([4]; first compound 0.3162 µM) | relative viability ([4]; first compound 1 µM) | relative viability ([1]; first compound 0.03162 µM)
NCI-H1648 | 0.348 | 0.291 | 0.408 | 0.351 | – | – | – | – | – | – | – | – | – | – | – | – | – | –
NCI-H1437 | 0.848 | 0.807 | 0.751 | 0.688 | 0.317 | 0.261 | 0.308 | 0.297 | 0.316 | 0.297 | 0.239 | 0.342 | 0.835 | 0.543 | 0.788 | 0.794 | 0.772 | 0.782
201T | 1.03 | 0.959 | 1.03 | 1.02 | 0.499 | 0.355 | 0.46 | 0.414 | 0.369 | 0.451 | 0.41 | 0.503 | 1.04 | 0.954 | 1.01 | 1.04 | 0.823 | 0.974
EBC-1 | – | – | – | – | – | – | – | – | – | – | – | – | 0.206 | 0.264 | 0.211 | 0.193 | 0.218 | –
LCLC-97TM1 | 0.804 | 0.694 | 0.789 | 1.1 | 0.395 | 0.442 | 0.45 | 0.455 | 0.472 | 0.448 | 0.402 | 0.419 | – | 0.794 | 0.949 | 1.22 | 1.09 | 0.546
NCI-H522 | 0.93 | 0.98 | 0.959 | 0.801 | 0.599 | 0.615 | 0.699 | 0.666 | 0.733 | 0.721 | 0.736 | 0.727 | – | – | – | – | – | 0.792
NCI-H1395 | 0.738 | 0.579 | 0.689 | 0.629 | 0.377 | 0.479 | 0.421 | 0.46 | 0.459 | 0.438 | 0.465 | 0.482 | 0.817 | 0.925 | 0.824 | 1.08 | 0.826 | 0.649
LU99A | 0.648 | 0.461 | 0.432 | 0.388 | 0.973 | 0.698 | 0.769 | 0.869 | 0.79 | 0.878 | 0.762 | 0.875 | 1.2 | 0.971 | 0.915 | 0.789 | 0.914 | 0.626
Calu-6 | – | – | – | – | – | – | – | – | – | – | – | – | 1.27 | 1.12 | 0.981 | 1.18 | 1.06 | –
NCI-H2228 | 0.648 | 0.615 | 0.612 | 0.368 | 0.286 | 0.211 | 0.276 | 0.32 | 0.241 | 0.319 | 0.286 | 0.293 | 1.24 | 0.574 | 0.942 | 0.826 | 0.542 | 0.737
NCI-H1915 | 0.577 | 0.505 | 0.49 | 0.505 | 0.405 | 0.31 | 0.358 | 0.348 | 0.377 | 0.373 | 0.309 | 0.408 | 1.07 | 0.973 | 0.969 | 0.945 | 0.446 | 0.564
NCI-H2405 | 1.01 | 0.968 | 0.916 | 0.231 | 0.403 | 0.539 | 0.356 | 0.368 | 0.554 | 0.386 | 0.402 | 0.396 | 1.03 | 1.04 | 1.01 | 1.09 | 1.01 | 0.949
NCI-H661 | 0.875 | 0.801 | 0.773 | 0.807 | 0.302 | 0.281 | 0.268 | 0.247 | 0.282 | 0.272 | 0.333 | 0.3 | 0.412 | 0.469 | 0.532 | 0.536 | 0.605 | 0.727
NCI-H1299 | – | – | – | – | – | – | – | – | – | – | – | – | 1 | 1.03 | 0.977 | 0.977 | 0.986 | –
SW 900 | 0.574 | 0.462 | 0.535 | 0.34 | 0.636 | 0.539 | 0.506 | 0.465 | 0.502 | 0.649 | 0.34 | 0.437 | – | – | – | – | – | 0.272
A549 | – | – | – | – | 0.225 | 0.802 | – | 0.124 | 1.12 | 0.17 | 0.159 | 0.186 | 1.16 | 0.953 | 0.955 | 1.05 | 0.971 | –
NCI-H441 | 0.888 | 0.837 | 1.23 | 0.638 | 0.689 | 0.474 | 0.783 | 0.864 | 0.788 | 1.16 | 0.905 | 0.813 | – | – | – | – | – | 0.495
ChaGo-K-1 | 0.808 | 0.699 | 0.782 | 0.557 | 0.579 | 0.404 | 0.447 | 0.443 | 0.337 | 0.517 | 0.52 | 0.474 | – | – | – | – | – | 0.654
NCI-H1623 | – | – | – | – | 0.61 | 0.597 | 0.579 | 0.58 | 0.568 | 0.6 | 0.559 | 0.57 | – | – | – | – | – | –
NCI-H1703 | – | – | – | – | – | – | – | – | – | – | – | – | 1.25 | 0.858 | 1.03 | 0.831 | 1.6 | –
LCLC-103H | 0.903 | 0.796 | 0.812 | 0.766 | 0.36 | 0.27 | 0.298 | 0.342 | 0.328 | 0.367 | 0.297 | 0.318 | – | – | – | – | – | 0.663
NCI-H1792 | – | – | – | – | 0.196 | – | 0.156 | 0.289 | 0.259 | 0.305 | 0.267 | 0.204 | 0.971 | – | 0.881 | 0.903 | 0.499 | –
NCI-H1563 | – | – | – | – | 0.643 | 0.639 | 0.641 | 0.631 | 0.666 | 0.676 | 0.637 | 0.675 | 1.03 | 0.911 | 0.862 | 0.979 | 0.922 | –
IA-LM | 1.09 | 0.973 | 0.947 | 0.749 | – | – | – | – | – | – | – | – | 0.816 | – | 0.665 | 0.698 | 0.388 | 0.519
NCI-H2342 | 0.691 | 0.735 | 0.751 | 0.76 | 0.591 | 0.519 | 0.527 | 0.569 | 0.586 | 0.606 | 0.599 | 0.48 | – | – | – | – | – | 0.687
